Reference: patent US20190343817A1, “METHOD OF TREATING PAIN” (VERTEX PHARMACEUTICALS INCORPORATED, priority 2018, published 2019)

Tests used:
[1] = test system: subjects with pain following bunionectomy; test: Efficacy of Compound 1 in subjects with pain following bunionectomy (randomized, double-blind, placebo-controlled, 3-arm study); type: in vivo, human
Description: A randomized, double-blind, placebo-controlled, 3-arm, parallel-design study to evaluate the effect of Compound 1 on acute surgical pain was conducted. Bunionectomy is a well-established, multi-dose, surgical, acute pain model. A randomized, double-blind study design was selected to avoid observer bias and reduce symptoms or outcomes arising from the subjects' knowledge of treatment. A parallel design was considered most appropriate given the acute nature of bunionectomy surgery.
Male and female patients between the ages of 18 and 65 years (inclusive) with pain that is ≥4 on an 11-point Numeric Pain Rating Scale (NPRS) and is moderate or severe on the Verbal Categorical Rating Scale (VRS) after bunionectomy.
Investigational Drug: Compound 1. The investigational drug was administered orally in 250 mg capsules, prepared as described in Example 2. The investigational drug was administered every 12 hours (q12 h). The first dose was 1500 mg, and the remaining doses were 750 mg.
The reference drug was administered orally in 5 mg/325 mg capsules, supplied as over-encapsulated 5 mg/325 mg tablets. The reference drug was administered in a dose of 5 mg/325 mg every 6 hours (q6 h).
After a screening period, subjects received a primary unilateral first metatarsal bunionectomy repair on Day −1. A continuous popliteal sciatic block infusion (0.2% ropivacaine) was started after surgery, and remained in place until approximately 3 AM on Day 1. After removal of the popliteal sciatic block, each subject was randomized when the subject requested the first dose of study drug for pain relief and reported pain ≥4 on the NPRS and moderate or severe pain on the VRS.
A total of 243 subjects were randomized approximately 1:1:1 to the Investigational Arm (80 subjects), Reference Arm (81 subjects), and Placebo Arm (82 subjects). To maintain the blind, all subjects received the same number of capsules in a double-dummy design.
In the Investigational Arm, Compound 1 was administered every 12 hours (q12 h) in a first dose of 1500 mg, followed by three 750 mg doses. The final dose of Compound 1 was given 36 hours after the first dose.
Compound 1 placebo capsules were administered every 12 hours (q12 h).
NPRS scores are frequently used in bunionectomy studies and are recognized by the FDA as a valid pain intensity measure. On the 11-point NPRS, a score of 0 denoted no pain, and a score of 10 denoted the worst pain intensity imaginable. Subjects reported their pain on the 11-point NPRS immediately before their first dose of the study drug (baseline NPRS score) and 0.5, 1, 1.5, 2, 3, 4, 5, 6, 8, 12, 16, 20, 24, 28, 32, 36, 40, 44, and 48 hours (±5 minutes) after the first dose of study drug. Pain intensity also was recorded on the NPRS immediately before each administration of rescue medication. Pain intensity scores that were collected within 4 hours after a dose of rescue medication were taken as missing, and the missing values were imputed as the intensity recorded immediately before the administration of rescue medication.
The primary efficacy analysis was based on an analysis of covariance (ANCOVA) model. The Least Squares (LS) mean of the time-weighted sum of the NPRS pain intensity difference, relative to baseline, from 0 to 24 hours after the first dose (“SPID24”) for each study arm is reported in Table 3. SPID24 is a standard measure of acute pain. Higher SPID24 scores represent improvements in pain relief. “Treatment difference” refers to the difference in SPID24 between the Investigational and Reference Arms, respectively, and the Placebo Arm.
The LS mean of the time-weighted sum of the NPRS pain intensity difference, relative to baseline, from 2 to 24 hours after the first dose (“SPID22”) for each study arm is reported in Table 4. The analysis was based on an analysis of covariance (ANCOVA) model. “Treatment difference” refers to the difference in SPID22 between the Investigational and Reference Arms, respectively, and the Placebo Arm.

[2] = test system: patients with chronic pain caused by small fiber neuropathy; test: Efficacy of Compound 1 for pain caused by small fiber neuropathy (randomized, double-blind, placebo-controlled, 6-week study); type: in vivo, human
Description: A randomized, double-blind, placebo-controlled, 6-week study that evaluated treatment with Compound 1 (Treatment Arm) or placebo (Placebo Arm) in patients with chronic pain caused by small fiber neuropathy was conducted.
Males and females between the ages of 18 and 80 years, inclusive, with small fiber neuropathy.
Compound 1 was administered orally in 250 mg capsules, prepared as described in Example 2.
The study included a 7-day run-in period, followed a 6-week treatment period. The subjects were randomized to a Placebo Arm (43 subjects) and a Treatment Arm (46 subjects) between the run-in period and the treatment period.
During the run-in period, subjects reported their average pain and sleep interference to establish a baseline NRS pain score and DSIS score.
During the treatment period, Compound 1 was administered to the subjects in the Treatment Arm every 24 hours (q24 h) in a dose of 1250 mg. Subjects in the Placebo Arm received placebo capsules.
Pain intensity was evaluated using an 11-point NRS. The 11-point scale ranged from 0 (no pain) to 10 (worst imaginable pain). From Day −7 through Week 6, subjects reported their average daily pain during the last 24 hours on the NRS via electronic diary.
Subjects reported pain interference with sleep using an 11-point scale ranging from 0 (none) to 10 (severe). The DSIS score was reported each morning in an electronic diary.
Subjects' impressions of their overall health status were reported on a 7-point scale from 1 (very much improved) to 7 (very much worse) at study visits.
NRS pain scores were averaged over weekly periods to reduce the impact on the analyses of individual high or low pain scores. The mean change from baseline in the weekly average of daily pain intensity on the 11-point NRS over the course of the treatment period for subjects in the Placebo and Treatment Arms is depicted graphically in FIG. 3. The mean change from baseline for those treated with Compound 1 compared to placebo was −1.09 (95% CI: −1.88 to −0.29) at Week 6.
The number and percentage of subjects with ≥30% and ≥50% reduction in the weekly average of daily pain intensity on the 11-point NRS at Week 6 is reported in Table 9. The total number of subjects for determining the percentage was based on subjects who had data at Week 6.
The total number of subjects for determining the percentage was based on subjects who had data at Week 6.

[3] = test system: subjects with pain following bunionectomy; test: Safety evaluations in the bunionectomy study (adverse events)
Description: Safety evaluations included adverse events, clinical laboratory assessments, clinical evaluation of vital signs, electrocardiograms, and physical examinations.

[4] = oral, Compound 1 1500 mg first dose then 750 mg q12 h, HB/APAP 5 mg/325 mg q6 h, ANCOVA
[5] = relative to baseline, 24 hours after first dose, Investigational Arm 80 subjects, Reference Arm 81 subjects
[6] = Week 6, 1250 mg q24 h, n/Total of subjects with data at Week 6 given

## Cc1cc(F)ccc1Oc1cc(C(F)(F)F)ccc1C(=O)Nc1ccn(COP(=O)(O)O)c(=O)c1 [Compound 1, (4-(2-(4-fluoro-2-methylphenoxy)-4-(trifluoromethyl)benzamido)-2-oxopyridin-1(2H)-yl)methyl dihydrogen phosphate]
[1]; 0 to 24 hours after first dose, same dosing as SPID24
  Treatment difference in SPID24 versus Placebo Arm: 29.50
[1]; 0 to 48 hours after first dose
  Treatment difference in SPID48 versus Placebo Arm: 62.79
[1]; 2 to 24 hours after first dose
  Treatment difference in SPID22 versus Placebo Arm: 28.53
[1]; Investigational Arm, 1500 mg then 750 mg q12 h
  Relief of acute pain compared to placebo (SPID24): statistically significant relief of acute pain compared to placebo
[1]; bunionectomy study, of subjects assigned to the arm
  Subjects who discontinued due to lack of efficacy: 7.5%
[1]; [4]
  SPID22 (SE): LS mean of time-weighted sum of NPRS pain intensity difference, relative to baseline, 2 to 24 hours after first dose: 34.95 (4.93)
  SPID48 (SE): LS mean of time-weighted sum of NPRS pain intensity difference, relative to baseline, 0 to 48 hours after first dose: 112.22 (10.57)
[1]; oral, Compound 1 1500 mg first dose then 750 mg q12 h, HB/APAP 5 mg/325 mg q6 h, ANCOVA, higher = better pain relief
  SPID24 (SE): LS mean of time-weighted sum of NPRS pain intensity difference, relative to baseline, 0 to 24 hours after first dose: 36.14 (5.15)
[1]; [5]
  Subjects achieving ≥30% NPRS reduction at 24 hours: 46 (57.5) n (%)
  Subjects achieving ≥50% NPRS reduction at 24 hours: 41 (51.3) n (%)
  Subjects achieving ≥70% NPRS reduction at 24 hours: 22 (27.5) n (%)
[2]; 1250 mg q24 h oral, 6 weeks, baseline 6.43, within-group
  Mean change from baseline NRS at week 6 (SE), weekly average of daily pain intensity on 11-point NRS: −2.02 (0.27)
[2]; [6]
  Subjects categorized as improved on the PGIC assessment: 39.5% (17/43)
  Subjects with ≥30% reduction in weekly average of daily pain intensity on 11-point NRS: 45.0% (18/40)
  Subjects with ≥50% reduction in weekly average of daily pain intensity on 11-point NRS: 32.5% (13/40)
[2]; Week 6, 1250 mg q24 h oral
  Mean change from baseline in weekly average of daily pain intensity (NRS), Compound 1 compared to placebo: −1.09 (95% CI: −1.88 to −0.29)
[2]; Week 6, 1250 mg q24 h oral, baseline 5.94
  Mean change from baseline (SE) in weekly average of Daily Sleep Interference Scale (DSIS) score: −1.78 (0.28)
[2]; as early as Week 1, 1250 mg q24 h oral
  Treatment difference versus placebo in NRS pain intensity: greater than 1 point
[3]; 1500 mg then 750 mg q12 h, oral
  Tolerability: generally well tolerated
[3]; percentage of arm
  Gastrointestinal adverse events: 13%
